Test results published in patent publication US20230338340A1, “Methods of Treating Cystic Fibrosis” (The Trustees of Dartmouth College, priority 2020, published 2023).
One block for each compound: values may come before it.

How the values were obtained:
Human-Dab2-DH = biological target: T1, Human-Dab2-DH (Homo sapiens, UniProt P98082); experiment: Dab2 FP competition assay via HTS; format: binding; conditions: at Cmax; cells printed with %
T1 construct: fused on or other part: N-terminal 10xHis tag with a 3C protease site, cleaved off unless otherwise indicated
T1 sequence (P98082 33-178 limits assumed): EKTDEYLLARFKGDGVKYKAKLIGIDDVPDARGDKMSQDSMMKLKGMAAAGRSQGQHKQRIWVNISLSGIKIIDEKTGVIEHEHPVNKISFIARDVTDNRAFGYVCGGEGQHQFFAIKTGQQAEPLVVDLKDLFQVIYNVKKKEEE
Description: (§1) CALP and/or Dab2 inhibition assays were performed in biochemical “mix-and-measure” format in order to evaluate the effects on activation and inhibition of CALP and/or Dab2 by the compounds of the disclosure. Brief assay procedure is provided below. Unless otherwise specified, all of the compounds were obtained from commercial sources.
Dab-2 inhibitors were also identified by FP competition assays via HTS. Human-Dab2-DH, residues 31-191 (Uniprot: P98082), and trDab2-DH (residues 33-178) was subcloned into the pET16b vector via PCR utilizing the restriction enzyme sites of Xhol and BamHI. The construct was designed with a 3C protease cleavage site directly upstream and in-frame with the protein coding sequence. DNA was sequence verified. (0.1 mM) IPTG was used to induce protein expression in E. coli BL21(DE3)RIL cells, after reaching an O.D. of […]. […] Followed by 3C cleavage of the 10×His tag (unless otherwise indicated), and a second nickel affinity column to remove the 3C protease and excess tag. Dab2-DH was dialyzed into FP storage buffer (25 mM Tris pH 8.0, 150 mM NaCl, 0.1 mM TCEP, and 0.02% sodium azide). Fluorescent reporter peptides, TIVR*STA02 (TMR*-[…]) and TMR*STA03 (TMR*-[…]), were purchased commercially with the following sequence where TMR* denotes a N-terminal tetramethylrhodamine group coupled via an aminohexanoic acid linker. An unlabled positive control peptide STA02 ([…]) was also purchased commercially. Inhibitors of Dab2-DH were identified from a variety of sources with various protocols outlined below.
For screens conducted at the Novartis Institutes for BioMedical Research FAST Lab, single-dose HTS assays were performed with libraries comprising ˜52,000 compounds at 20 μM doses. Experiments were conducted as described for screens at the University of Pittsburgh Lab and Drug Discovery Institute, except that Dab2-DH, not trDab2-DH, was used as the protein source.
For screens conducted at the Broad Institute, compound transfers were done using a 384-well pin tool equipped with 100 nL hydrophobic surface coated pins. 100 nL of DMSO (negative control), STA02 (positive control), or library compounds were dispensed into 20 μL of protein (200 nM) and reporter (F*-STA02, 30 nM) mixture with 0.1 mg/ml mouse IgG and 0.5 mM Thesit. Final concentrations in the mixture were DMSO ([…]), STA02 (20 μM), and compounds (18 μM). Plates were incubated for 35-45 minutes before measuring polarization. Compounds were tested in duplicates on two separate plates. Positive and negative controls were included in each individual plate.
For experiments conducted at the University of Pittsburgh Lab and Drug Discovery Institute, single-dose HTS assays were performed with a library containing ˜220,000 compounds. On the day of screening, a master mix of equal parts trDab2-DH (900 nM) and TMP-STA03 (90 nM) was prepared. Compound plates containing assay ready 2 μL aliquots of a 1 mM stock solution in DMSO were thawed, reconstituted in FP buffer to a concentration of 30 μM in 3% DMSO, and five μL transferred to low volume assay plates using a Perkin Elmer MDT. Ten μL of master mix were added by a Microflo bulk liquid dispenser (Biotek, Winooski, VT) and processed as described in the general protocol above. Each plate contained 32 wells of positive (Dab2-DH+probe+DMSO) and negative (Dab2-DH+probe +10 μM STA03) controls. Plates were read at 1.5-h and 4-h on the Envision multilabel reader.

Dab2-DH = biological target: T2, Dab2-DH (Homo sapiens, UniProt P98082); experiment: Dab2-DH FP competitive displacement experiments (F*-STA02 reporter); format: binding; conditions: text b140
T2 construct: Human-Dab2-DH, residues 31-191 (Uniprot: P98082); 10xHis (3C protease site) (N, cleaved yes); made in house; host or cells: E. coli BL21(DE3)RIL
T2 sequence (P98082 31-191): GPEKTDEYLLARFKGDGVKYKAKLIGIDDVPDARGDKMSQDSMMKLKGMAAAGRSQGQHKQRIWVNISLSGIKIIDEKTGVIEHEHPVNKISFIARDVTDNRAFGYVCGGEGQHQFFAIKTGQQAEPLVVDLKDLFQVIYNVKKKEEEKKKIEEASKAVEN

CALP = biological target: T3, CALP (Homo sapiens, UniProt Q9HD26); experiment: Dose-dependent CALP inhibition by FP competition assay, large-volume format; format: binding; conditions: one experimental replicate
T3 construct: Recombinant CAL PDZ was expressed and purified in E. coli as previously described; made in house; host or cells: E. coli
Description: The following compounds of Table 2 were obtained from commercial sources, and evaluated in fluorescence polarization (FP) competition assay.
Specifically, dose-dependent CALP inhibition of compounds of examples 36-41 was assessed by FP competition assays. Experiments were conducted similarly to HTS assays described above but in large-volume format. Briefly, CALP was expressed and purified as previously described (Amacher et al., 2011). A fluorescently labeled peptide, NPG32, was commercially obtained (sequence: F*-[…] where F* denotes a N-terminal fluorescein group coupled via an aminohexanoic acid linker). CALP was dialyzed into FP storage buffer (25 mM Tris pH 8.5, 150 mM NaCl, 0.1 mM TCEP, and 0.02% sodium azide). CALP was diluted into FP buffer (FP storage buffer supplemented with 0.1 mg/mL IgG and 30 μM thesit) containing 31.58 nM NPG32. The protein/reporter solution was aliquoted into 384-well plates with each well containing 19 μL of the mixture. Twelve-point titrations (2-fold serial dilutions) of the test compounds were prepared in 25% DMSO. To each well, 1 μL of compound was added. […] Plates were incubated at room temperature for 30 min before anisotropy was measured. […] Except for Examples 37-38, the reported potency for all compounds was calculated by averaging three experimental replicates.

CAL PDZ [1] = biological target: T4, CAL PDZ (Homo sapiens, UniProt Q9HD26); experiment: CALP fluorescence polarization (FP) competition assay, HTS format with dose-response validation; format: binding; design: Inhibitory activity CALP at 100 μM: unit not given here
T4 construct: Recombinant CAL PDZ was expressed and purified in E. coli as previously described; made in house; host or cells: E. coli
Description: as §1
CALP inhibitors were identified by fluorescence polarization (FP) competition assays in high-throughput screening (HTS) format. Recombinant CAL PDZ was expressed and purified in E. coli as previously described (Amacher et al., Acta Cyst. (2011) F67, 600-603), and dialyzed into FP storage buffer (25 mM Tris pH 8.5, 150 mM NaCl, 0.1 mM TCEP, and 0.02% sodium azide). A fluorescent reporter peptide, NPG32, was purchased commercially with the following sequence: F*-[…] (F* denotes a N-terminal fluorescein group coupled via an aminohexanoic acid linker). Initial single-dose HTS was performed with libraries comprising ˜52,000 compounds (FAST Lab—Novartis Institutes for BioMedical Research). First, 25 nL of 5 mM small-molecule was transferred to 1536-well Grenier plates. 3 μL of 3.708 μM CALP in FP buffer (FP storage buffer supplemented with […]) was added, and plates were incubated for 10 min. Next, 3 μL of 60 nM NPG32 (in FP buffer) was added. Final reaction volumes were 6 μL and contained 1.854 μM CALP, 30 nM NPG32, and 20.83 μM small-molecule. […] Plates were incubated for 30 minutes at room temperature and anisotropy was measured (480 nm excitation wavelength and 535 nm emission wavelength). […] Compounds were validated in triplicate using 8-point dilution series in half-log increments with two orthogonal assays: FRET and TMR-based FP assay. For the FRET assay, a cerulean-CALP fusion protein (Cer-CALP) was expressed and purified as previously described (Zhao et al., 2018). A fluorescent reporter peptide, PRC34, was purchased commercially with the following sequence: TMR*-[…] (TMR* denotes a N-terminal tetramethylrhodamine group coupled via an aminohexanoic acid linker). First, 40 nL of compound was transferred to the plates. 5 μL of 16.632 μM Cer-CALP was added, and plates were incubated for 30 min. Next, 5 μL of 16.632 μM PRC34 was added, and plates were incubated for 30 min. Final reaction volumes were 10 μL and contained 8.316 μM CALP, 8.316 μM […], and variable concentrations of small-molecule. Negative controls contained equivalent amounts of DMSO (0.4%), while positive controls contained 100 μM NPG30 (sequence: […]). Plates were incubated for 30 min, and emission at 475 nm and 575 nm was measured following excitation at 430 nm. TMR FP assays were conducted as described for the FITC-based assay with the following exceptions: TMR was used as the reporter peptide, the final CALP concentration was 11.952 μM, and the positive control used was 100 μM NPG30.

CAL PDZ [2] = biological target: T4, CAL PDZ; experiment: MALDI-TOF detection of covalent modification of CAL PDZ; format: binding
Description: (§2) Following incubation of 50 μM protein with 75 μM of example 8, the molecular weight of the samples was determined by MALDI (unlabeled CALP molecular weight: 9464±15 Da; labeled CALP molecular weight: 9623±9 Da).

CAL PDZC319A = biological target: T5, CAL PDZC319A (Homo sapiens, UniProt Q9HD26, C327A); experiment: MALDI-TOF detection of adduct on point mutant CAL PDZ C319A; format: binding; conditions: only cysteine mutated to alanine
T5 construct: point mutant CAL PDZC319A (where the only cysteine residue is mutated to alanine)
Description: as §2

CAL PDZ [3] = biological target: T4, CAL PDZ; experiment: FP assay of peptide binding by CAL PDZ pre-labeled with compound (apparent KD)
Excerpt: Next, to probe the biochemical effect example 8 exerts on CAL PDZ-peptide binding, CAL PDZ was pre-labeled with example 8 and performed fluorescence polarization (FP) assays to determine apparent KD values for both unlabeled and labeled CAL PDZ.

wild-type CFTR = experiment: Cell-surface expression of wild-type CFTR in WT-CFBE cells; format: cell-based; conditions: 1 μM and 5 μM, no correctors or potentiators
Description: The effect of example 8 on cell-surface expression of wild-type CFTR was also tested in the absence of correctors or potentiators. Two doses (1 μM and 5 μM) of example 8 were applied to wild-type cystic fibrosis bronchial epithelial (WT-CFBE) cells and the abundance of WT-CFTR cells in the plasma membrane was quantified.

CFTR [4] = experiment: Apical membrane abundance of CFTR in WT-CFBE cells (biotinylation, immunoblot); format: cell-based; conditions: 1 μM
Description: Apical membrane CFTR was normalized for CFTR abundance in cell lysate. N=2 (1h and 2 h) and n=3 (4h). Error bar S.E.M. *p<0.05 versus vehicle control (CTRL; 0.03% water).

CFTR [5] = experiment: CFTR activity in F508del HBE primary cells; format: cell-based; conditions: 1 μM, 4 hours
[6] = with VX-770, C-18, CFFT-002, Fsk and IBMX

Inhibitory activity CALP at 100 μM (CAL PDZ [1]; at 100 μM): −72.16
IC50 (CAL PDZ [1]; read-out: Inhibitory activity CALP IC50): 4.57 µM
Adduct size / mass shift observed on CAL PDZ (CAL PDZ [2]): ~160 Da
Covalent modification of CAL PDZ (CAL PDZ [2]): covalently modify CAL PDZ
Adduct on CAL PDZ C319A (CAL PDZC319A): no adduct is detected
Attenuation in peptide binding vs unlabeled CAL PDZ (CAL PDZ [3]): ~4 fold
SMILES: O=c1[nH]c2ccc(S(=O)(=O)Nc3ccc(O)c4ccccc34)cc2[nH]1 [Example 8, N-(4-hydroxynaphthalen-1-yl)-2-oxo-2,3-dihydro-1H-benzo[d]imidazole-5-sulfonamide]
Surface levels of WT-CFTR (wild-type CFTR): reduce surface levels of WT-CFTR

CALP binding in FP competition (CALP): absence of binding
SMILES: O=c1[nH]c2ccc(S(=O)(=O)Nc3cccc4ccccc34)cc2[nH]1 [Example 37, N-(naphthalen-1-yl)-2-oxo-2,3-dihydro-1H-benzo[d]imidazole-5-sulfonamide]

More lines, now with the values behind:

SMILES: CN1CCc2cccc3c2[C@@H]1Cc1ccc(O)c(O)c1-3.Cl [Example 12, (S)-6-methyl-5,6,6a,7-tetrahydro-4H-dibenzo[de,g]quinoline-10,11-diol hydrochloride]
Inhibitory activity Dab2 at Cmax (Human-Dab2-DH): ~−95%
Ki (Dab2-DH): 1.61 ± 0.74 µM

SMILES: O=c1[nH]c2ccc(S(=O)(=O)Nc3ccc(O)cc3)cc2[nH]1 [Example 38, N-(4-hydroxyphenyl)-2-oxo-2,3-dihydro-1H-benzo[d]imidazole-5-sulfonamide]
CALP binding in FP competition (CALP): absence of binding

SMILES: C=C1c2cccc(O)c2C(O)=C2C(=O)[C@]3(O)C(O)=C(C(N)=O)C(=O)[C@@H](N(C)C)[C@@H]3[C@@H](O)[C@H]12 [Example 10, (4S,4aR,5S,5aR,12aR)-4-(dimethylamino)-1,5,10,11,12a-pentahydroxy-6-methylene-3,12-dioxo-3,4,4a,5,5a,6,12,12a-octahydrotetracene-2-carboxamide]
Abundance of CFTR (apical membrane) (CFTR [4]): increase in the abundance of CFTR
CFTR activity (CFTR [5]; [6]): significant enhancement of CFTR activity
Channel activity relative to absence of C-18 and CFFT-002 (CFTR [5]; [6]): approximately 2 fold
CFTR activity (CFTR [5]; with VX-770, Fsk and IBMX): significant enhancement of CFTR activity
